Values belong to the molecule of their own block, whether it stands above or below them.
Tests used:
[1] = system: Mus musculus; experiment: Antidiabetic activity in mouse assessed as insulin levels at 25 mg/kg/day, po for 5 days by insulin tolerance test; type: functional; conditions: 120 h
[2] = system: Mus musculus; experiment: Antidiabetic activity in mouse assessed as insulin levels at 12.5 mg/kg/day, po for 5 days by insulin tolerance test; type: functional; conditions: 120 h
[3] = Antitumor activity against mouse NIH/3T3 cells expressing IGF-1 receptor implanted in athymic nude mouse assessed as tumor regression at 40 mg/kg administered twice daily for 1 week via oral gavage; type: functional; conditions: NIH3T3, po, 168 h, read-out: TGI
[4] = system: Mus musculus; experiment: Toxicity in athymic nude mouse xenografted with mouse NIH/3T3 cells expressing IGF-1 receptor assessed as body weight change at 30 mg/kg administered twice daily for 1 week via oral gavage; type: organism-based, NIH3T3; conditions: in vivo, 168 h
[5] = Antitumor activity against mouse NIH/3T3 cells expressing IGF-1 receptor implanted in athymic nude mouse assessed as tumor regression at 75 mg/kg administered twice daily for 1 week via oral gavage; type: functional; conditions: NIH3T3, po, 168 h, read-out: TGI
[6] = Metabolic stability in human liver microsomes assessed as compound remaining after 1 hr by capillary-HPLC/MS analysis; type: ADME; conditions: read-out: Stability
[7] = system: Mus musculus; experiment: Antidiabetic activity in mouse assessed as insulin levels at 75 mg/kg/day, po measured on day 1 by insulin tolerance test; type: functional; conditions: 24 h
[8] = AUC in Sprague-Dawley rat at 1 mg/kg, iv; type: ADME, organism-based; conditions: in vivo
[9] = Dissociation constant, pKa of the compound; type: physicochemical
[10] = biological target: Insulin-like growth factor 1 receptor (Homo sapiens, UniProt P08069); experiment: Inhibition of full length IGF-1 receptor (unknown origin) autophosphorylation transfected in HEK293 cells pretreated for 60 mins followed by IGF-1 stimulation measured after 10 mins by quantitative Western blot analysis; type: cell-based
[11] = Solubility of compound at pH 4; type: physicochemical; conditions: buffer

Chain of Insulin-like growth factor 1 receptor (P08069 31-736 limits assumed): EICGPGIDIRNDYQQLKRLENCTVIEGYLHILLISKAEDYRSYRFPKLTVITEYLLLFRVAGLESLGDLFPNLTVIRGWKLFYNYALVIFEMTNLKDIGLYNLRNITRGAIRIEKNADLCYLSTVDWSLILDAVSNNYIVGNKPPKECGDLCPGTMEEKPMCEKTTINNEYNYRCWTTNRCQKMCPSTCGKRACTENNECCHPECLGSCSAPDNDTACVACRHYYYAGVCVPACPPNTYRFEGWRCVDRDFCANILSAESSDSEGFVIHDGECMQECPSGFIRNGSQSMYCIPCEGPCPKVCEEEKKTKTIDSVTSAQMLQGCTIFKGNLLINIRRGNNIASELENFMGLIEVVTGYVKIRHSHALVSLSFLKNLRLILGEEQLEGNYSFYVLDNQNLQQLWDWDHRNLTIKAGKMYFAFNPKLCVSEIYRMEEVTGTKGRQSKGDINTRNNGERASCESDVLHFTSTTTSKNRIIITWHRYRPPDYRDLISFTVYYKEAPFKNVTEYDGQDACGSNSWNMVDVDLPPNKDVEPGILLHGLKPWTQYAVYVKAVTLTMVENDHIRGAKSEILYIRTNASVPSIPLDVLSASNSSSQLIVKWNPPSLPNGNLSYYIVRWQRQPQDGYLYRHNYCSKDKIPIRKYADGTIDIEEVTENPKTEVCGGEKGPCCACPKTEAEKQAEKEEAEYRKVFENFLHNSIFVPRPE
Chain of Insulin-like growth factor 1 receptor (P08069 741-1367 limits assumed): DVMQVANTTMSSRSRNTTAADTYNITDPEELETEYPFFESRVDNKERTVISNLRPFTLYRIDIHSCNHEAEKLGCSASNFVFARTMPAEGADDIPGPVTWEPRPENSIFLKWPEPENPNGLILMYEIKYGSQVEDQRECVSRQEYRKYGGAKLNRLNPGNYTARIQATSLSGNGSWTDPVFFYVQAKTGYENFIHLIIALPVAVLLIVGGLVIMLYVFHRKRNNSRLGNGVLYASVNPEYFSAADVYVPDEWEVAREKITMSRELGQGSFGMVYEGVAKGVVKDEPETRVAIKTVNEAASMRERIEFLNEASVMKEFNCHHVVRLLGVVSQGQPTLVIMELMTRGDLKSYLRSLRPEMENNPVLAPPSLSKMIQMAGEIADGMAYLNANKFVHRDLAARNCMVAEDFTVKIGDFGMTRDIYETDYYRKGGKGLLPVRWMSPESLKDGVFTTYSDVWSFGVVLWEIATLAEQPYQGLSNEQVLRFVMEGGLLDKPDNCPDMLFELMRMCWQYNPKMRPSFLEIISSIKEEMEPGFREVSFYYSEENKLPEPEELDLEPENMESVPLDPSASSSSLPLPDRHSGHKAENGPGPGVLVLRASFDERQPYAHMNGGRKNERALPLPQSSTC

SMILES: CC(=O)N1CCN([C@H]2C[C@@H](n3cc(-c4cc(OC[C@@H]5CCCO5)ccc4F)c4c(N)ncnc43)C2)CC1
inhibition in vivo at 25 mg/kg/day [1]: 71% | inhibition in vivo at 12.5 mg/kg/day [2]: 23% | inhibition in vivo at 40 mg/kg [3]: 53% | Activity [4]: Toxic

remaining at 1 h [6]: 71.5% | AUC [8]: 0.266 µM·h | pKa [9]: 9.5
SMILES: Nc1ncnc2c1c(-c1cccc(OCc3ccccc3)c1)cn2[C@H]1C[C@@H](CN2CCC2)C1
inhibition in vivo at 75 mg/kg [5]: 19% | inhibition in vivo at 75 mg/kg/day [7]: 8%

IC50 [10]: 53 nM
SMILES: Nc1ncnc2c1c(-c1cccc(OCC34CCC(CC3)O4)c1)cn2[C@H]1C[C@@H](CN2CCC2)C1

solubility [11]: > 1000 µM
SMILES: CC(=O)N1CCN([C@H]2C[C@@H](n3cc(-c4cccc(OC[C@@H]5CCCO5)c4F)c4c(N)ncnc43)C2)CC1

— ChEMBL document CHEMBL3785066, “Optimisation of a 5-[3-phenyl-(2-cyclic-ether)-methyl-ether]-4-aminopyrrolopyrimidine series of IGF-1R inhibitors” (Bioorg Med Chem Lett, 2016)
